Data published in publication PMC12406203 (Journal of Medicinal Chemistry, 2025).

Columns and labels:
Assay in all cases: KINOMEscan
Format in all cases: binding
[1] = target: T1, CHEK1 (Homo sapiens, UniProt O14757)
T1 construct: purchased Eurofins DiscoverX, LLC; host or cells: E. coli (T7 phage) or HEK-293
T1 sequence (O14757 1-476): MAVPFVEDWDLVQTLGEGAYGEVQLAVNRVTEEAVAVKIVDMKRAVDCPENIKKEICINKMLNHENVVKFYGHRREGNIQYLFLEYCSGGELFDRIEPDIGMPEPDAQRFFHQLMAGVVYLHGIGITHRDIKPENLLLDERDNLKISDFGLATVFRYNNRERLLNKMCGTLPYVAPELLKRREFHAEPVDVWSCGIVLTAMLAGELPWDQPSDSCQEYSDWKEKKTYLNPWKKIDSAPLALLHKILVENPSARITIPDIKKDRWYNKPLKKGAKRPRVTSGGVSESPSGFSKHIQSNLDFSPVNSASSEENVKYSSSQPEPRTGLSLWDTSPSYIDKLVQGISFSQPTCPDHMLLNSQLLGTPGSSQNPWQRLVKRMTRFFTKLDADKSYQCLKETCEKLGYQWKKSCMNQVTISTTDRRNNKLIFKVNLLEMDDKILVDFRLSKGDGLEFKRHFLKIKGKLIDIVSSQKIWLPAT
Protocol: (§1) The kinase inhibition profile of compounds 94 and 95 was assessed against 103 protein kinases by Eurofins DiscoverX, LLC., using the KINOMEscan assay. Kinase-tagged T7 phage strains were grown in parallel in 24-well blocks in an E. coli host derived from the BL21 strain. E. coli were grown to log-phase and infected with T7 phage from a frozen stock (multiplicity of infection = 0.4) and incubated with shaking at 32 °C until lysis (90–150 min). The lysates were centrifuged (6000g) and filtered (0.2 μm) to remove cell debris. The remaining kinases were produced in HEK-293 cells and subsequently tagged with DNA for qPCR detection. […] The liganded beads were blocked with excess biotin and washed with blocking buffer (SeaBlock (Pierce), 1% BSA, 0.05% Tween 20, 1 mM DTT) to remove unbound ligand and to reduce nonspecific phage binding. […] Test compounds were prepared as 100× stocks in 100% DMSO and directly diluted into the assay. All reactions were performed in polypropylene 384-well plates in a final volume of 0.02 mL. […] The kinase concentration in the eluates was measured by qPCR.
(§2) The compound(s) were screened at the concentration(s) requested, and results for primary screen binding interactions are reported as RA (%), where lower numbers indicate stronger hits in the matrix. RA=(testcompoundsignal−PCsignal/NCsignal−PCsignal)×100

[2] = target: T2, DCAMKL1 (Homo sapiens, UniProt O15075)
T2 construct: purchased Eurofins DiscoverX, LLC; host or cells: E. coli (T7 phage) or HEK-293
T2 sequence (O15075 1-740): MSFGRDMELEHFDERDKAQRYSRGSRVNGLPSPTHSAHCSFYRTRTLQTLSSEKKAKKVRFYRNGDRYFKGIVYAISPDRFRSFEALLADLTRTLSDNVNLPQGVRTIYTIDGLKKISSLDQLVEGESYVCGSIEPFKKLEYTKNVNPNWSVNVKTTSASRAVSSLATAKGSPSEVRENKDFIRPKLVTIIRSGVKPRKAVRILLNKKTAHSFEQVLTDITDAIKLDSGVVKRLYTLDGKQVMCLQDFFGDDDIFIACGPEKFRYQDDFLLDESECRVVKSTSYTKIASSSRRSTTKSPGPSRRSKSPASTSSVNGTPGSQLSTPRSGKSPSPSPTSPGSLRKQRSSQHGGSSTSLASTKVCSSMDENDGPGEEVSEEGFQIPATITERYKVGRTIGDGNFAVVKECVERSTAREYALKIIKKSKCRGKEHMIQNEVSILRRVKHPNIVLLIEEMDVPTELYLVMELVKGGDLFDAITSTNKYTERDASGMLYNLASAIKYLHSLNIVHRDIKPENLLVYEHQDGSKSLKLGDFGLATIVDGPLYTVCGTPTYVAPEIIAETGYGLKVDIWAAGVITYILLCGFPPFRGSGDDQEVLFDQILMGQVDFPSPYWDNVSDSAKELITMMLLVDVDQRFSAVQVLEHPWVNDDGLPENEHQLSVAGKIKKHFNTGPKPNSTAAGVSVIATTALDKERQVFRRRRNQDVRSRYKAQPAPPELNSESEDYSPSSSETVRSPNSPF
Protocol: as §1, §2

[3] = target: T3, LCK (Homo sapiens, UniProt P06239)
T3 construct: purchased Eurofins DiscoverX, LLC; host or cells: E. coli (BL21-derived, T7 phage) or HEK-293
T3 sequence (P06239 whole entry): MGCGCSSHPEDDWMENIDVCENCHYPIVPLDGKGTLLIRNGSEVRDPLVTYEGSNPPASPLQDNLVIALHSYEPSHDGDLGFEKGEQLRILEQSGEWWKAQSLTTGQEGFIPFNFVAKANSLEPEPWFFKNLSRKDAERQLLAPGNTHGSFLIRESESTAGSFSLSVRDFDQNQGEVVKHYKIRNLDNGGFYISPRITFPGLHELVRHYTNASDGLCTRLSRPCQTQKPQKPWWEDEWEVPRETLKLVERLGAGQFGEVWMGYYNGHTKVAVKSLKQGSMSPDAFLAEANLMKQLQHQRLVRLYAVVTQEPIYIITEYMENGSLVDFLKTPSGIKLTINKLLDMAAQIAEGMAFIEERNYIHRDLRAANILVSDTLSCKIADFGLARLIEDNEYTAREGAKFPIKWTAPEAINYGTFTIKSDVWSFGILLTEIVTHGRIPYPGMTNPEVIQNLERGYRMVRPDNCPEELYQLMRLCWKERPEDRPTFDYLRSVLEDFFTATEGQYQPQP
Protocol: as §1, §2

[4] = target: T4, MEK2 (Homo sapiens, UniProt P36507)
T4 construct: purchased Eurofins DiscoverX, LLC; host or cells: E. coli (BL21-derived, T7 phage) or HEK-293
T4 sequence (P36507 whole entry): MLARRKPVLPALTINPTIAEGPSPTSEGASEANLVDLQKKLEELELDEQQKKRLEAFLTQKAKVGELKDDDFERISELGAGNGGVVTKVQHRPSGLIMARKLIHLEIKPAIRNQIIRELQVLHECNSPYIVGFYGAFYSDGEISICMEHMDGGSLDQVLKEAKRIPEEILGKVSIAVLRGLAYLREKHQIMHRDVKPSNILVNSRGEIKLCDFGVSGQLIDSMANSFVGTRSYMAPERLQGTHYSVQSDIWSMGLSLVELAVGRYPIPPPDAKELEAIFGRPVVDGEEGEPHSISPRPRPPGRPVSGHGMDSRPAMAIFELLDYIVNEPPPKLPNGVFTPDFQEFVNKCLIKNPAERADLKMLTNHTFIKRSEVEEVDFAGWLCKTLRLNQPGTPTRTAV
Protocol: as §1, §2

[5] = target: T5, MKNK1 (Homo sapiens, UniProt Q9BUB5)
T5 construct: purchased Eurofins DiscoverX, LLC; host or cells: E. coli (BL21-derived, T7 phage) or HEK-293
T5 sequence (Q9BUB5 whole entry): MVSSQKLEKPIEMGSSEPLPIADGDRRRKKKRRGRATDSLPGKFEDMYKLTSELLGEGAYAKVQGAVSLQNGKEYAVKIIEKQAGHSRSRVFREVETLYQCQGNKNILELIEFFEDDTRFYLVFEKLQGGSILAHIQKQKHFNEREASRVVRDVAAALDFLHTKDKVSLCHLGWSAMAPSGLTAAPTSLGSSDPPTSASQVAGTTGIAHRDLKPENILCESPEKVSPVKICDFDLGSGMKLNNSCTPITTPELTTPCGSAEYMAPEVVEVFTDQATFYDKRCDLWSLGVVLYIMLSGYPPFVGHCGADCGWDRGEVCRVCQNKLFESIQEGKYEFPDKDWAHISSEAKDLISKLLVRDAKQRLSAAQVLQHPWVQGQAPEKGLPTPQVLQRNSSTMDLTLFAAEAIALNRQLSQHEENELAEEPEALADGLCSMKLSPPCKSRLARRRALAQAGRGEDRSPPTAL
Protocol: as §1, §2

[6] = target: T6, PAK1 (Homo sapiens, UniProt Q13153)
T6 construct: purchased Eurofins DiscoverX, LLC; host or cells: E. coli (BL21-derived, T7 phage) or HEK-293
T6 sequence (Q13153 whole entry): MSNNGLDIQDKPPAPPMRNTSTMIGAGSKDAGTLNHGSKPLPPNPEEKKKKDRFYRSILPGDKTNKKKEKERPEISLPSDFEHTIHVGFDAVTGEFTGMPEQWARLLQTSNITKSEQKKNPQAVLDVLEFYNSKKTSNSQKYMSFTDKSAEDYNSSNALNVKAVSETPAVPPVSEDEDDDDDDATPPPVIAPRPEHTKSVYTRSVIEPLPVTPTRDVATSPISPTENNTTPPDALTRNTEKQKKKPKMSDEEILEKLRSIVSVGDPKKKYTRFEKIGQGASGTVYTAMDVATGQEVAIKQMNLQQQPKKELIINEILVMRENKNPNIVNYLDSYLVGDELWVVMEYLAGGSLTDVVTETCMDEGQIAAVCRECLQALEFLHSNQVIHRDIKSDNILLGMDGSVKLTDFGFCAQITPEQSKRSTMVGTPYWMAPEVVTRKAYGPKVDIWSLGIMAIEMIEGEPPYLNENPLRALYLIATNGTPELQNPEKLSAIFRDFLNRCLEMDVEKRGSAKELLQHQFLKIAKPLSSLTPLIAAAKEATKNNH
Protocol: as §1, §2

[7] = target: T7, PIK3CA (Homo sapiens, UniProt P42336)
T7 construct: purchased Eurofins DiscoverX, LLC; host or cells: E. coli BL21-derived host (T7 phage) or HEK-293
T7 sequence (P42336 whole entry): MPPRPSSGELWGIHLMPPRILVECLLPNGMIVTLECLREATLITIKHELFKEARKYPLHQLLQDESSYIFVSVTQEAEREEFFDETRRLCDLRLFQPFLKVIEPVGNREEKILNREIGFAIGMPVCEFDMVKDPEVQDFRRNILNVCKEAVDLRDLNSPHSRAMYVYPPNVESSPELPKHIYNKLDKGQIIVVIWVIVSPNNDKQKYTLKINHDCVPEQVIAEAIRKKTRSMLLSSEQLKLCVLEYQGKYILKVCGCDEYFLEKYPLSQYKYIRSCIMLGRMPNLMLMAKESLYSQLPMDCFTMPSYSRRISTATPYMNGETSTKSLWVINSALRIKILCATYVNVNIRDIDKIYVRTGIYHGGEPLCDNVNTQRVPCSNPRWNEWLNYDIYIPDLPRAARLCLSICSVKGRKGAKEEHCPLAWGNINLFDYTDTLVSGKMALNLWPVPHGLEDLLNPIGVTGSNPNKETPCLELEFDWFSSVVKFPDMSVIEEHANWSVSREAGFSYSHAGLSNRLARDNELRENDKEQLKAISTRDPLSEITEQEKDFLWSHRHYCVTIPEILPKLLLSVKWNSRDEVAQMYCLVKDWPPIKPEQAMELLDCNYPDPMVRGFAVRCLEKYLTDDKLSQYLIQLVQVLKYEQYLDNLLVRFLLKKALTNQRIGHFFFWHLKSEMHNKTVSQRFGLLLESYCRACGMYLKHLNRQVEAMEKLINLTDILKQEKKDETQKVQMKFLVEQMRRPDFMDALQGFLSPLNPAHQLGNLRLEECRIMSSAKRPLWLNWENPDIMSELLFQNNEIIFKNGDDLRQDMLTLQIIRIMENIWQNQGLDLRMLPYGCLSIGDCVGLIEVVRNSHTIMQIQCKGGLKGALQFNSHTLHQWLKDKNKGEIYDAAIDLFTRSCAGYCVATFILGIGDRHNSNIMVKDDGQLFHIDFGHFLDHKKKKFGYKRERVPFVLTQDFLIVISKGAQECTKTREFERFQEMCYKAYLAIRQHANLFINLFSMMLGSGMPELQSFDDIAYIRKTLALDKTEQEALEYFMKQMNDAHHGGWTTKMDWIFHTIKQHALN
Protocol: as §1, §2

[8] = target: T8, VEGFR2 (Homo sapiens, UniProt P35968)
T8 construct: purchased Eurofins DiscoverX, LLC; host or cells: E. coli BL21-derived host (T7 phage) or HEK-293
T8 sequence (P35968 20-1356): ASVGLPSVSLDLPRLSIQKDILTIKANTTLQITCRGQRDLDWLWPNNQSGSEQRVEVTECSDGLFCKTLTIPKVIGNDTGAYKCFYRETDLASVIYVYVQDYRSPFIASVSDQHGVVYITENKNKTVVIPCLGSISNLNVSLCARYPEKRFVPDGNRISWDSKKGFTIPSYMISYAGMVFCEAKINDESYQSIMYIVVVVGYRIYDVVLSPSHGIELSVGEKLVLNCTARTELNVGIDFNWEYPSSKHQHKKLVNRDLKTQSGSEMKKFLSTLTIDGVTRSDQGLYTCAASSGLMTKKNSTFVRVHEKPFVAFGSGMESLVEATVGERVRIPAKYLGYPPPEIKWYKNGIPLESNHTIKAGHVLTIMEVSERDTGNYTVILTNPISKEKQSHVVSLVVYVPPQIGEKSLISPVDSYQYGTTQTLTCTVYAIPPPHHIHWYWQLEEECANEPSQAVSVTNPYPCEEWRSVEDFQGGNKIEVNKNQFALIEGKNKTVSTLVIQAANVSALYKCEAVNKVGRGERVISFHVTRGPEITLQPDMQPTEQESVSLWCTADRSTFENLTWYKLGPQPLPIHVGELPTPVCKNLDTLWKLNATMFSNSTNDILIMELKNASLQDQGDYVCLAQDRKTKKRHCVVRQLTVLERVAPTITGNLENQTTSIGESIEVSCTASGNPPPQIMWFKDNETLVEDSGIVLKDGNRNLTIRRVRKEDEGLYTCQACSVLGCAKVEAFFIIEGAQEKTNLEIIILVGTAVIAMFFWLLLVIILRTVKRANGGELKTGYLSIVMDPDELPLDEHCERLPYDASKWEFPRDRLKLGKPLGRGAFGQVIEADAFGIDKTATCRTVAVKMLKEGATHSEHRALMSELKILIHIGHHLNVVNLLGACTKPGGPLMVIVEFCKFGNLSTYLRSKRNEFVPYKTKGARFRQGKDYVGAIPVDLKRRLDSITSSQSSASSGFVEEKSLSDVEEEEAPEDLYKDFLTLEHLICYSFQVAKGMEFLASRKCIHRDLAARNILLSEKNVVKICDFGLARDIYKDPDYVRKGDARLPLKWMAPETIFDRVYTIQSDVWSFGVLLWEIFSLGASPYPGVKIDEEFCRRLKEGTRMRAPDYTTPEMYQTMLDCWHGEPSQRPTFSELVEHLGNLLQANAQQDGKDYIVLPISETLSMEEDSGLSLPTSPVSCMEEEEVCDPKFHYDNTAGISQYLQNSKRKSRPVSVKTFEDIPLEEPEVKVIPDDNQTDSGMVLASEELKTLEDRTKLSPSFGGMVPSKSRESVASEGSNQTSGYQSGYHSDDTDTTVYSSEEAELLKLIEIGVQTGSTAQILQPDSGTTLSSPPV
Protocol: as §1, §2

[9] = target: T9, p38γ (Homo sapiens, UniProt P53778)
T9 construct: purchased Eurofins DiscoverX, LLC; host or cells: E. coli (BL21-derived, T7 phage) or HEK-293
T9 sequence (P53778 1-367): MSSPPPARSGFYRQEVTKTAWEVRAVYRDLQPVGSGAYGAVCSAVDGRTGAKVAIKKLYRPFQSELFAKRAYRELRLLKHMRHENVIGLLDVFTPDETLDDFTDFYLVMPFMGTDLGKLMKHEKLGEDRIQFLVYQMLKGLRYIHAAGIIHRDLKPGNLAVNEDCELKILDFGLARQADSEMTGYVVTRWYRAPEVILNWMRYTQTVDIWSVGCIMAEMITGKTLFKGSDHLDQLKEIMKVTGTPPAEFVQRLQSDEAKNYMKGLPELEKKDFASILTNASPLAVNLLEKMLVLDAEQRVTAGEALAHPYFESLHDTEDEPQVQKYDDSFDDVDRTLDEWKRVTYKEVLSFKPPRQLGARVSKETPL
Protocol: as §1, §2

SMILES | RA @ 1000nM [1] | RA @ 10000nM [1] | RA @ 1000nM [2] | RA @ 10000nM [2] | RA @ 1000nM [3] | RA @ 10000nM [3] | RA @ 1000nM [4] | RA @ 10000nM [4] | RA @ 1000nM [5] | RA @ 10000nM [5] | RA @ 1000nM [6] | RA @ 10000nM [6] | RA @ 1000nM [7] | RA @ 10000nM [7] | RA @ 1000nM [8] | RA @ 10000nM [8] | RA @ 1000nM [9] | RA @ 10000nM [9]
CN(C)CCNC(=O)c1cc2c(cnn2CC2CCCCC2)cc1Cc1ccc(F)cc1F [Compound 95, 1-(Cyclohexylmethyl)-5-(2,4-difluorobenzyl)-N-(2-(dimethylamino)ethyl)-1H-indazole-6-carboxamide] | 100% | 100% | 100% | 100% | 94% | 100% | 95% | 100% | 100% | 100% | 100% | 93% | 100% | 100% | 100% | 100% | 100% | 99%
CC(C)Cn1ncc2cc(Cc3ccc(F)cc3F)c(C(=O)NCCN(C)C)cc21 [Compound 94, 5-(2,4-Difluorobenzyl)-N-(2-(dimethylamino)ethyl)-1-isobutyl-1H-indazole-6-carboxamide] | 100% | 100% | 100% | 100% | 100% | 97% | 86% | 80% | 100% | 100% | 96% | 94% | 77% | 95% | 100% | 100% | 93% | 94%
